We go through 13 compounds from PubChem BioAssay (NCI).

Molecules are shown by their SMILES.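 Where inhibition never reached the appropriate level, the endpoint shown equals the highest concentration tested. Otherwise, values were interpolated linearly from a five-concentration, 48-hour dose response in 96-well plates. GI50 = concentration required for 50% inhibition of growth. TGI marks complete inhibition of growth.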

Some test systems named below: HOP-92 NSCLC; SF-268 CNS; OVCAR-3 ovarian; SK-MEL-5 melanoma; NCI/ADR-RES ovarian; EKVX NSCLC; MDA-MB-231 breast; MDA-MB-435; HL-60(TB) leukemia; A549 NSCLC.
Assay in all cases: growth of human tumour cells (NCI), 48 h

Regarding `N#Cc1ccccc1NC(=O)C(=O)c1c(O)c2ccccc2oc1=O`, the TGI in the test on HOP-92 NSCLC, in the test on SF-268 CNS, in the test on OVCAR-3 ovarian, in the test on SK-MEL-5 melanoma, in the test on NCI/ADR-RES ovarian and in the test with EKVX NSCLC was > 100 µM each time. Further, the TGI with MDA-MB-231 breast, in the test with MDA-MB-435, with HL-60(TB) leukemia and with A549 NSCLC was > 100 µM in each case.

On to `C[C@H](Nc1ncnc2nc[nH]c12)c1cc2ccc(F)cc2nc1-c1ccccn1`, for which the GI50 with HOP-92 NSCLC was 3.43 µM; with SF-268 CNS, > 100 µM; with OVCAR-3 ovarian, 34.3 µM; in the test with SK-MEL-5 melanoma, 91.2 µM; with NCI/ADR-RES ovarian it was > 100 µM; with EKVX NSCLC, > 70.7 µM. Besides, the GI50 with MDA-MB-231 breast was > 80 µM; with MDA-MB-435 it was > 100 µM; in the test on HL-60(TB) leukemia it was 30.3 µM; in the test on A549 NSCLC, > 100 µM. The TGI in the test with HOP-92 NSCLC, in the test on SF-268 CNS, with OVCAR-3 ovarian, in the test on SK-MEL-5 melanoma, with NCI/ADR-RES ovarian and with EKVX NSCLC was > 100 µM in each case. Further, the TGI with MDA-MB-231 breast, with MDA-MB-435, in the test with HL-60(TB) leukemia and with A549 NSCLC was > 100 µM in each case.

Turning to `COc1ccc(C(SCC(N)C(=O)O)(c2ccccc2)c2ccccc2)cc1` (centres undefined), the GI50 in the test on HOP-92 NSCLC was 2 µM; with SF-268 CNS, 0.0877 µM; in the test on OVCAR-3 ovarian, 0.0677 µM; in the test with SK-MEL-5 melanoma, 0.0623 µM; in the test on NCI/ADR-RES ovarian, 2.12 µM; in the test on EKVX NSCLC it was 0.436 µM. The GI50 with MDA-MB-231 breast is 0.23 µM; with MDA-MB-435, 0.0306 µM; in the test on HL-60(TB) leukemia, 0.136 µM; in the test on A549 NSCLC it was 0.594 µM. The TGI in the test with HOP-92 NSCLC was 66.8 µM; in the test with SF-268 CNS, 71.5 µM; in the test on OVCAR-3 ovarian, 0.503 µM; with SK-MEL-5 melanoma, 19.7 µM; in the test on NCI/ADR-RES ovarian, 33.7 µM; with EKVX NSCLC it was > 100 µM. Besides, the TGI is 4.72 µM in the test on MDA-MB-231 breast and > 100 µM in the test on A549 NSCLC.

As to `O=C(CN(/C=C/C(=O)C(F)(F)F)c1ccc(Cl)cc1)c1ccccc1`, the GI50 was 10.4 µM with HOP-92 NSCLC; > 100 µM with SF-268 CNS; 9.15 µM in the test on OVCAR-3 ovarian; 12.1 µM in the test with SK-MEL-5 melanoma; 14.1 µM with NCI/ADR-RES ovarian; 15.1 µM with EKVX NSCLC. Further, the GI50 in the test with MDA-MB-231 breast was 15.8 µM; in the test with MDA-MB-435, 10.8 µM; in the test on HL-60(TB) leukemia it was 17.3 µM; in the test with A549 NSCLC it was 12 µM. For the same compound, the TGI in the test on HOP-92 NSCLC was 28.1 µM; in the test on SF-268 CNS it was > 100 µM; in the test with OVCAR-3 ovarian, 46.3 µM; in the test with SK-MEL-5 melanoma, 27.7 µM; with NCI/ADR-RES ovarian, 30.3 µM; in the test on EKVX NSCLC, 34.1 µM. Moreover, the TGI with MDA-MB-231 breast was 33.8 µM; with MDA-MB-435 it was 39 µM; with HL-60(TB) leukemia, 66.7 µM; in the test on A549 NSCLC, > 100 µM.

For the compound `O=C1c2ccccc2S(=O)(=O)N1CSC(=S)N1CCCCC1`, the GI50 with HOP-92 NSCLC was > 100 µM; with SF-268 CNS, > 100 µM; in the test with OVCAR-3 ovarian, > 100 µM; with SK-MEL-5 melanoma, 33.2 µM; with NCI/ADR-RES ovarian, > 100 µM; with EKVX NSCLC, > 100 µM. Besides, the GI50 is > 100 µM in the test on MDA-MB-231 breast, > 100 µM with MDA-MB-435, 0.0329 µM with HL-60(TB) leukemia and > 100 µM in the test with A549 NSCLC. For the same compound, the TGI in the test on HOP-92 NSCLC, in the test on SF-268 CNS, in the test with OVCAR-3 ovarian, in the test with SK-MEL-5 melanoma, with NCI/ADR-RES ovarian and in the test with EKVX NSCLC was > 100 µM in each case. Moreover, the TGI in the test with MDA-MB-231 breast, with MDA-MB-435, in the test with HL-60(TB) leukemia and in the test with A549 NSCLC was > 100 µM each time.

Consider `COc1cc(OC)c(/C=C\c2ccnc3ccccc23)c(OC)c1`, for which the TGI in the test on HOP-92 NSCLC stood at 9.91 µM; in the test on SF-268 CNS, 22.8 µM; in the test with OVCAR-3 ovarian, 12.8 µM; in the test on SK-MEL-5 melanoma, 5.88 µM; with NCI/ADR-RES ovarian, 10.2 µM; with EKVX NSCLC, 17.7 µM. Moreover, the TGI in the test on MDA-MB-231 breast was 15.4 µM; in the test on MDA-MB-435, 1.78 µM; in the test on HL-60(TB) leukemia, 0.963 µM; in the test on A549 NSCLC, 18.6 µM.

For `CC(=O)c1cc(C(=O)c2ccc3c(c2)Sc2ccccc2N3)c2c(C)cc(C)cn12`, the GI50 in the test on HOP-92 NSCLC is 1.24 µM; in the test with SF-268 CNS, 0.533 µM; in the test with OVCAR-3 ovarian, 0.222 µM; in the test with SK-MEL-5 melanoma, 0.402 µM; with NCI/ADR-RES ovarian, 0.264 µM; with EKVX NSCLC it was 0.636 µM. Besides, the results for the GI50 in the test with MDA-MB-231 breast, with MDA-MB-435 and in the test on A549 NSCLC were 0.458 µM, 0.0468 µM and 0.337 µM, respectively. Also, the TGI in the test with HOP-92 NSCLC is > 31 µM; with SF-268 CNS it was > 46.3 µM; in the test on OVCAR-3 ovarian it was 0.596 µM; in the test with SK-MEL-5 melanoma it was 2.13 µM; with NCI/ADR-RES ovarian, 8.16 µM; with EKVX NSCLC it was > 100 µM. In addition, the TGI with MDA-MB-231 breast was 8.95 µM; in the test with MDA-MB-435 it was 0.237 µM; with A549 NSCLC, > 55.6 µM.

With `COc1ccc2cc(-c3cc4c(oc3=O)-c3ccccc3OC4O)c(=O)oc2c1` (centres undefined), the GI50 is 10.2 µM in the test on HOP-92 NSCLC; 16.9 µM in the test on SF-268 CNS; 15.4 µM in the test with OVCAR-3 ovarian; 13.2 µM in the test with SK-MEL-5 melanoma; 17.7 µM in the test on NCI/ADR-RES ovarian; 15.2 µM in the test on EKVX NSCLC. For the same compound, the GI50 in the test on MDA-MB-231 breast is 17.9 µM; with MDA-MB-435, 16.4 µM; in the test with HL-60(TB) leukemia, > 100 µM; in the test on A549 NSCLC, 14.5 µM. In addition, the TGI amounted to 24.7 µM in the test on HOP-92 NSCLC; 33.8 µM with SF-268 CNS; 30.6 µM with OVCAR-3 ovarian; 26.9 µM in the test on SK-MEL-5 melanoma; 31.7 µM in the test with NCI/ADR-RES ovarian; 32.8 µM with EKVX NSCLC. The TGI with MDA-MB-231 breast is 36.1 µM; in the test with MDA-MB-435, 36 µM; in the test with HL-60(TB) leukemia, > 100 µM; with A549 NSCLC, 28.2 µM.

As to `Nc1nc(OCc2cc(Br)cs2)c2[nH]cnc2n1`, the GI50 is 3.11 µM in the test on HOP-92 NSCLC; 32.3 µM in the test on SF-268 CNS; 28.1 µM in the test on OVCAR-3 ovarian; 15.9 µM in the test on SK-MEL-5 melanoma; 29.5 µM in the test with NCI/ADR-RES ovarian; 24.7 µM with EKVX NSCLC. For the same compound, the GI50 was 27.8 µM in the test with MDA-MB-231 breast, 29.9 µM in the test with MDA-MB-435, 27.9 µM in the test with HL-60(TB) leukemia and 32.9 µM in the test on A549 NSCLC. Moreover, the TGI with HOP-92 NSCLC is 37 µM; in the test on SF-268 CNS it was > 100 µM; in the test with OVCAR-3 ovarian, > 100 µM; in the test with SK-MEL-5 melanoma, 39.6 µM; in the test with NCI/ADR-RES ovarian it was > 100 µM; in the test on EKVX NSCLC, > 100 µM. The TGI in the test on MDA-MB-231 breast, with MDA-MB-435, in the test on HL-60(TB) leukemia and in the test on A549 NSCLC was > 100 µM throughout.

As for `NC(=O)c1ccc(NN=O)nc1`, the GI50 with HOP-92 NSCLC and in the test with MDA-MB-435 was > 100 µM in each case. In addition, the TGI with HOP-92 NSCLC, in the test on SF-268 CNS, in the test on OVCAR-3 ovarian, with SK-MEL-5 melanoma, with NCI/ADR-RES ovarian and in the test on EKVX NSCLC was > 100 µM throughout. Besides, the TGI with MDA-MB-231 breast, with MDA-MB-435, with HL-60(TB) leukemia and with A549 NSCLC was > 100 µM in each case.

As for `C[C@]12CC[C@H](O)C[C@H]1CC[C@@H]1[C@@H]2CC[C@]2(C)[C@@H](C3=CC(=O)OC3)[C@@H](O)C[C@]12O`, the TGI in the test with HOP-92 NSCLC is > 100 µM; in the test with SF-268 CNS, 2.55 µM; with OVCAR-3 ovarian, 1.73 µM; in the test with SK-MEL-5 melanoma, 3.2 µM; in the test on NCI/ADR-RES ovarian it was 3.9 µM; with EKVX NSCLC it was 2.78 µM. The TGI in the test on MDA-MB-231 breast was 20.1 µM; with MDA-MB-435 it was 10.3 µM; with HL-60(TB) leukemia it was 3.45 µM; in the test with A549 NSCLC it was 1.65 µM.

In the case of `CC1COc2c(N3CCN(C)CC3)c(F)cc3c(=O)c(C(=O)O)cn1c23` (centres undefined), the GI50 was 0.478 µM in the test with HOP-92 NSCLC; > 100 µM in the test on SF-268 CNS; > 100 µM in the test on OVCAR-3 ovarian; > 100 µM in the test with SK-MEL-5 melanoma; > 100 µM in the test on NCI/ADR-RES ovarian; > 100 µM in the test with EKVX NSCLC. In addition, the GI50 is 81.7 µM in the test with MDA-MB-231 breast, > 100 µM with MDA-MB-435 and > 100 µM in the test on A549 NSCLC. Besides, the TGI in the test on HOP-92 NSCLC, with SF-268 CNS, in the test with OVCAR-3 ovarian, in the test on SK-MEL-5 melanoma, in the test on NCI/ADR-RES ovarian and in the test with EKVX NSCLC was > 100 µM throughout. For the same compound, the TGI in the test on MDA-MB-231 breast, with MDA-MB-435 and with A549 NSCLC was > 100 µM each time.

`CN(C)c1ccc(N=C2C=CC(=[N+](C)C)C=C2)cc1`: the GI50 is 5.17 µM in the test on HOP-92 NSCLC; 11 µM in the test with SF-268 CNS; 4.99 µM with OVCAR-3 ovarian; 3.26 µM with SK-MEL-5 melanoma; 19.1 µM with NCI/ADR-RES ovarian; 3.58 µM in the test with EKVX NSCLC. Besides, the GI50 was 6.41 µM with MDA-MB-231 breast, 6.34 µM in the test with MDA-MB-435 and 5.21 µM with A549 NSCLC. Besides, the TGI is 74.4 µM in the test with HOP-92 NSCLC; 68.1 µM in the test with SF-268 CNS; 17.7 µM with OVCAR-3 ovarian; 11.8 µM in the test with SK-MEL-5 melanoma; > 100 µM in the test with NCI/ADR-RES ovarian; 40.7 µM in the test on EKVX NSCLC. Also, the values for the TGI in the test with MDA-MB-231 breast, with MDA-MB-435 and in the test with A549 NSCLC were > 100 µM, 29.2 µM and > 100 µM, respectively.
